Several values for one entry are separate records, joined by “and”; a condition that tells them apart may be missing. Identical values can stand only once.

Data set [1] concerns the target T1, mouse TNF (Mus musculus, UniProt P06804).
T1 construct: stabilise an asymmetrical form of the soluble TNF trimer
T1 sequence (P06804 80-235 limits assumed): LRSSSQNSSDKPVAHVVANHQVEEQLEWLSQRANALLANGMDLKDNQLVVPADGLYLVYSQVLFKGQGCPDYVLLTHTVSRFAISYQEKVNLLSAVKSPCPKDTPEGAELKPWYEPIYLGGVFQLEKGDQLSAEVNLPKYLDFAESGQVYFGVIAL
The experiment in a line: TNF reporter gene assay HEK-293, mouse TNF. To be noted: HEK-293 NF-kB reporter gene assay. The format is cell-based. The method, then:
Stimulation of HEK-293 cells by TNF leads to activation of the NF-κB pathway. The HEK-Blue^TM CD40L SEAP (secreted embryonic alkaline phosphatase) reporter cell line used to determine TNF activity (InvivoGen, #hkb-CD40, cells were described as mycoplasma free when purchased and were tested using Mycoalert [Lonza] after each batch of assay vial preparation). Compounds were titrated in DMSO and pre-incubated with TNF at a concentration giving half maximal response (10 pM for human or 20 pM for mouse) or the anti-human TNFR1 agonist antibody (R&D Systems. #AF 225) for 1 h. Cells were added to the compound/stimulus mixture and further incubated for 18 h. SEAP was measured using the colorimetric substrate HEK-Blue Detect^TM or QUANTI-Blue^TM from InvivoGen. Percentage inhibitions for compound dilutions were calculated between a DMSO control and maximum inhibition (by excess anti-TNF biologic, or NF-κB inhibitor–TPCA-1 [Tocris #2559, R&D Systems]). The IC50 was determined as the point of inflexion between the fitted minimum and maximum of the compound dose response curve, calculated using 4PL fitted curve. Mean IC50s are reported as a mean of at least two experiments. Dose response curves for TNF and the anti-human TNFR1 agonist antibody are shown in Supplementary Fig. 9.

Data set [2] has as its target T2, TNF (Homo sapiens, UniProt P01375). The experiment in a line: TNF L929 cytotoxicity assay, human TNF. Type of data set: cell-based. Also noted: stabilise an asymmetrical form of the soluble TNF trimer. The method, then: TNF (human or mouse) kills L929 cells which have been compromised by incubation with a sub-lethal concentration of actinomycin D, and this effect is inhibited with TNF biologics. Compounds were titrated in DMSO, and then pre-incubated with human or mouse TNF for 1 h. […] L929 cytotoxicity was measured by the addition of CellTitreGlo (Promega). Luminescence was measured after an incubation of at least 20 min in the dark. Percentage inhibition was calculated between unstimulated wells (maximum signal), and wells with TNF, DMSO and actinomycin D (minimum signal). The IC50 was calculated as the point of inflexion for a 4PL fitted curve. Mean IC50s are reported as a mean of at least two experiments.
Target sequence in this assay (P01375 77-233 limits assumed): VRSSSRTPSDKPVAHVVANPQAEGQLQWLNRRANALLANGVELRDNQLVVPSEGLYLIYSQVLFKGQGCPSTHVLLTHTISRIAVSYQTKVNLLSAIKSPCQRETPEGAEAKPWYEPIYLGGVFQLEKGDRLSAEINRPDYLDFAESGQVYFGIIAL

Data set [3] deals with Balb/c mice (CAIA model). The experiment in a line: Collagen antibody induced arthritis (CAIA) model. Type of data set: in vivo, mouse. Also noted: key to Daily arthritis score: 0 = no arthritis, 3 = wrist/ankle, pad and digits affected. To be noted: Ab501 i.v. then s.c.; for Daily arthritis score: individual mice, UCB-9260 150 mg/kg po bid. The procedure:
Ab501 (in-house anti-mouse TNF antibody, […]) was administered intravenously 6 h post-LPS administration followed by three further doses administered subcutaneously at 48-h intervals. Animals were scored for signs of arthritis and weighed daily. The following scoring system was used for signs of arthritis: 0-no arthritis, 1-wrist/ankle affected, 2-wrist/ankle and pad affected and 3-wrist/ankle, pad, and digits affected. Data shown as the mean ± standard error of arthritis clinical score for the treatment group. Statistical significance (*p < 0.05, **p < 0.01) was determined using one-way ANOVA with Dunnett’s multiple comparison test.

In data set [4] the target is T2, TNF. Briefly: Biacore kinetics of binding. Details: Human TNF (CID2043, UniProt P01375 residues 77–233); 6XHis-Smt3 (N, cleaved yes); host or cells: E. coli TOP10. The conditions noted are these: SPR single-cycle; linked TNF with n-terminal HKH tag; read-out: KD. The procedure:
Surface plasmon resonance using a Biacore T100/T200 was used to measure the association rate constant (ka), the dissociation rate constant (kd) and the affinity (KD) of compounds. TNF (VCID 2043 Beryllium) was immobilised to approximately 5 kRU as described above and equilibrated for at least 5 h in HBS P + buffer with 5% DMSO. UCB-6876 was serially diluted from 187.5 µM, flowing over the immobilised TNF at 50 µL/min for 3 min before allowing full dissociation under flow for at least 6 min. […] […] The compounds were allowed to dissociate for 2 h under flow.
A general note: Surface plasmon resonance follows binding to a sensor surface in real time, without labels.
Target sequence in this assay (P01375 with tags, fused parts or gaps): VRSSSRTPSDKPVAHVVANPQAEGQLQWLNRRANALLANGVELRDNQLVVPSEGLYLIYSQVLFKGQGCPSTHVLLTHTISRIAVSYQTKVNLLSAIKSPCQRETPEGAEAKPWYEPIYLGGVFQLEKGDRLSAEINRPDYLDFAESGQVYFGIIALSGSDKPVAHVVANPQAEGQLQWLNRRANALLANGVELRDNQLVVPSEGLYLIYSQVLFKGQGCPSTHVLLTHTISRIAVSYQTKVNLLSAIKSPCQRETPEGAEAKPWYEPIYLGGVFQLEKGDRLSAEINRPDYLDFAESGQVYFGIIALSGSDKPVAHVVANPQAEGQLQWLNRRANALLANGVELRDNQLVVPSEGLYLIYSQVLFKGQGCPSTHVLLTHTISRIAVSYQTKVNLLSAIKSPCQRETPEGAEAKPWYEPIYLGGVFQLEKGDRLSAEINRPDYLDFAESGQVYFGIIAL

Data set [5] can be described thus: Mouse free fraction. The format is in vitro ADME. To be noted: read-out: Mouse free fraction (Fu).

Consider `Cc1ccc(C)c(Cn2c(C(O)c3ccncc3)nc3ccc(-c4cnn(C)c4)cc32)c1` (stereo not shown) [UCB-9260], for which it took 95 nM to reach half-maximal inhibition in data set [1] (IC50). Also, the Luminescence units in data set [2] (compound -logM 4.6) is listed as 12619 Luminescence units; in data set [2] (compound -logM 5.08), 13471 Luminescence units; in data set [2] (compound -logM 5.56), 13691 Luminescence units; in data set [2] (compound -logM 6.03) it was 12384 Luminescence units; in data set [2] (compound -logM 6.51), 8197 Luminescence units; in data set [2] (compound -logM 6.99), 7043 Luminescence units. Moreover, the Luminescence units in data set [2] (compound -logM 7.46) was 6740 Luminescence units; in data set [2] (compound -logM 7.94), 4803 Luminescence units; in data set [2] (compound -logM 8.42) it was 3698 Luminescence units; in data set [2] (compound -logM 8.9), 3202 Luminescence units. Moreover, the Daily arthritis score in data set [3] (Day 0) is 0; in data set [3] (Day 1) it was 0; in data set [3] (Day 2) it was 0; in data set [3] (Day 3, 150 mg/kg), 0 and 2 and 1; in data set [3] (Day 4, 150 mg/kg), 3 and 0 and 1 and 2; in data set [3] (Day 5, 150 mg/kg) it was 2 and 0 and 1 and 3. Besides, the Daily arthritis score in data set [3] (Day 6, 150 mg/kg) is 1 and 0 and 2 and 3; in data set [3] (Day 7, 150 mg/kg), 0 and 2 and 3 and 1. Moreover, in data set [3] (UCB-9260 150 mg/kg po bid from 6 h after LPS), the “effect on arthritis clinical score” value is “significant reduction of the clinical score”. The Kd (in general, the free concentration of one partner at which half of the binding sites on the other are occupied at equilibrium, for simple one-to-one binding) in data set [4] turned out to be 13 nM. Besides, the fraction unbound in data set [5] was 0.024.

(Values after paper PMC6923382, “Small molecules that inhibit TNF signalling by stabilising an asymmetric form of the trimer” (Nature Communications, 2019).)
